Tests used:
Histone deacetylase 1 = Histone deacetylase 1 (Homo sapiens, UniProt Q13547)
[1] = target: T1, Protein deacetylase HDAC6 (Homo sapiens, UniProt Q9UBN7)
T1 sequence (Q9UBN7 whole entry): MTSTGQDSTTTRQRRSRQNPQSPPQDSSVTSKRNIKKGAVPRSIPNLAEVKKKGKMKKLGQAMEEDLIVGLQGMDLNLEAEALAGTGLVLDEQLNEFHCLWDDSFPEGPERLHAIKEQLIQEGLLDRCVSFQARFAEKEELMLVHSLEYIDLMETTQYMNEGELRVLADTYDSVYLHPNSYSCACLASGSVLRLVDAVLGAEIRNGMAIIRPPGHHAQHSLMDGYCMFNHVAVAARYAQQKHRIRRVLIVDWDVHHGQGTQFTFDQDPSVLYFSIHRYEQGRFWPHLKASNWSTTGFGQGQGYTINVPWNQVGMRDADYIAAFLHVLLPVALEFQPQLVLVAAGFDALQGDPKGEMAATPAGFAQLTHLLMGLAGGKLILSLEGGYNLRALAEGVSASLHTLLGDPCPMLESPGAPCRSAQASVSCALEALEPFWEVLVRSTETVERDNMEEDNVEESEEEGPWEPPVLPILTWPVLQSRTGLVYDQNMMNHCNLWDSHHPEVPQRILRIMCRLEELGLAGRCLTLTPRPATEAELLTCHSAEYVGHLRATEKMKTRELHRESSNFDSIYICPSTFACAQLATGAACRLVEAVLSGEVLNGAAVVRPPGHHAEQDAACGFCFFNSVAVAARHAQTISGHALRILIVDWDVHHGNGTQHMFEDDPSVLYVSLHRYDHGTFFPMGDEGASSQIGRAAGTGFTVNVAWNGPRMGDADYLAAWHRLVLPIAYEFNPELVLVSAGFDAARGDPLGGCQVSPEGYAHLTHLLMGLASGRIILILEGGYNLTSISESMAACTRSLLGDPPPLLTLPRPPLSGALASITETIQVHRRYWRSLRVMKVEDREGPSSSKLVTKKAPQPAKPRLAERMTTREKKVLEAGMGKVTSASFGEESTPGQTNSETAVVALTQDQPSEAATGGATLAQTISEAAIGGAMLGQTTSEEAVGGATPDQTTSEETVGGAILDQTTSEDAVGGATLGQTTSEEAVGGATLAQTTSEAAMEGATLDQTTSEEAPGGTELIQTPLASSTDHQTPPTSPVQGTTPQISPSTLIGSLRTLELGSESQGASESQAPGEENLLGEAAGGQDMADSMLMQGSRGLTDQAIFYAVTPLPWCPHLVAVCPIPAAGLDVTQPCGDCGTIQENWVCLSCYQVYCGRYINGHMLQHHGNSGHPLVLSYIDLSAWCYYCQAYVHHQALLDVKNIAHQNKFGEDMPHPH

Chain of Histone deacetylase 1 (Q13547 whole entry): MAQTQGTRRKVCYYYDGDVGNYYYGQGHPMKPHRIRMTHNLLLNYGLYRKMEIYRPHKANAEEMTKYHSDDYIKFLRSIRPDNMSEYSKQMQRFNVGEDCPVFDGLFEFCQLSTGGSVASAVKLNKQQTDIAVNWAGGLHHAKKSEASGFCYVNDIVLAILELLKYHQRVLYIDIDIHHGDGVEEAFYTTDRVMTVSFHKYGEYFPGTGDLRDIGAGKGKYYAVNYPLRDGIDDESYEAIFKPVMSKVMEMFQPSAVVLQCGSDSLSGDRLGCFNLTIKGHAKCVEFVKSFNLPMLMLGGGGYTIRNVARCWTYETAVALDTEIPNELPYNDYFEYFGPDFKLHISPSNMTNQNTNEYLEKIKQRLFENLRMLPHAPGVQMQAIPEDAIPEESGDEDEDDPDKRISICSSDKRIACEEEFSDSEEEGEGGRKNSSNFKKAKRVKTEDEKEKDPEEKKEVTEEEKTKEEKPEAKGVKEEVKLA

| SMILES | IC50 (Histone deacetylase 1) | IC50 [1] |
| --- | --- | --- |
| CCCCN(Cc1ccc(C(=O)NO)cc1)C(=O)Nc1cccc(N(C)C)c1 | 604 nM | 6.12 nM |
| O=C(NCc1ccc(C(=O)NO)cc1)Nc1ccc(CO)cc1 | 1060 nM | 8.3 nM |

Reference: ChEMBL document CHEMBL5726379, “Selective histone deactylase 6 inhibitors” (2017)
